Test results reported in PMC12155096 (International Journal of Molecular Sciences, 2025).
Where a name gives a salt, the structure may show the parent alone.

Target: T1, human CYP2C19 (Homo sapiens, UniProt P33261)
Experiment: not given
Settings: not given

T1 sequence (P33261 whole entry): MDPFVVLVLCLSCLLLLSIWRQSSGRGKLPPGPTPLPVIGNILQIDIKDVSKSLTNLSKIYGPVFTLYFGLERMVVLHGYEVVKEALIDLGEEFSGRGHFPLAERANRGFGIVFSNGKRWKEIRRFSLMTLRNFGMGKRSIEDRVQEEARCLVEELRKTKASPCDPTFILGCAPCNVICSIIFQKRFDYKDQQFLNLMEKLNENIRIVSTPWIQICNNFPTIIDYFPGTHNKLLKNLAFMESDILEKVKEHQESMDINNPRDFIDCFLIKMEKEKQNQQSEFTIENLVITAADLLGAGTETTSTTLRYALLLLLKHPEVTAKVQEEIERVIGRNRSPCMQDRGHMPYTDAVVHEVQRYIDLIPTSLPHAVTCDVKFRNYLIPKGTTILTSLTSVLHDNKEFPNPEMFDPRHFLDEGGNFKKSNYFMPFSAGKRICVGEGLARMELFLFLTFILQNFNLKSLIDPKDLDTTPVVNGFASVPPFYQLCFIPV

Compound	CYP2C19 AC50 (half-maximal activity concentration)
Cc1cc(O)cc(C)c1Cl [4-Chloro-3,5-dimethylphenol]	Inconclusive inhibitor
Cc1cc(=O)oc2cc(O)ccc12 [4-Methylumbelliferone]	Inactive
Oc1ccc(Cc2ccc(O)cc2)cc1 [Bis(4-hydroxyphenyl)methane]	Inconclusive inhibitor
COC(=O)Nc1nc2ccc(C(=O)c3ccccc3)cc2[nH]1 [Mebendazole]	Inactive
COC(=O)c1ccc(O)cc1 [Methylparaben]	Inactive
COC(=O)Nc1nc2ccc(C(=O)c3cccs3)cc2[nH]1 [Nocodazole]	Inconclusive inhibitor
CCNc1nc(Cl)nc(NCC)n1 [Simazine]	Inactive

Target: human CYP2D6 (Homo sapiens, UniProt P10635)
Experiment: not given
Settings: not given

human CYP2D6, sequence (P10635 whole entry): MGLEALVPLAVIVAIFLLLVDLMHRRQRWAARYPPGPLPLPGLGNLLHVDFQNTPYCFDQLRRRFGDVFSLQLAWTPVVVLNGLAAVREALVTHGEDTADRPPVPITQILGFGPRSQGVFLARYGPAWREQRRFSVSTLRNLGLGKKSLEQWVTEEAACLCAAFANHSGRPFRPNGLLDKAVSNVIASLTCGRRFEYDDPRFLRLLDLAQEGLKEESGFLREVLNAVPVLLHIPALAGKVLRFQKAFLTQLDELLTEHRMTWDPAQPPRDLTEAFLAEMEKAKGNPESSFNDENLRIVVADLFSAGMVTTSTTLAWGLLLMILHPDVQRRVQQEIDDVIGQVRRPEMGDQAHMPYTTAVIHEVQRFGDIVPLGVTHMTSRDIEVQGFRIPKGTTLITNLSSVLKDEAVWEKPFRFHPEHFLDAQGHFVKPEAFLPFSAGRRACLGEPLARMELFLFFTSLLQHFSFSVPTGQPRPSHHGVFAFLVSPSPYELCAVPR

Compound	CYP2D6 AC50 (half-maximal activity concentration)
Nc1c(Br)cc([N+](=O)[O-])cc1Br [2,6-Dibromo-4-nitroaniline]	Inactive
CCC(C)c1ccccc1O (centres unmarked) [2-(Butan-2-yl)phenol]	Inactive
CC(C)c1ccccc1O [2-Isopropylphenol]	Inactive
O=[N+]([O-])c1ccc(O)cc1C(F)(F)F [3-Trifluoromethyl-4-nitrophenol]	Inconclusive inhibitor
CCC(C)c1ccc(O)cc1 (centres unmarked) [4-(Butan-2-yl)phenol]	Inactive
CCN(CC)c1ccc(C=O)cc1 [4-(Diethylamino)benzaldehyde]	Inconclusive inhibitor
Cc1cc(O)cc(C)c1Cl [4-Chloro-3,5-dimethylphenol]	Inactive
Cc1cc(=O)oc2cc(O)ccc12 [4-Methylumbelliferone]	Inactive
CC(C)(C)c1ccc(OC(=O)c2ccccc2O)cc1 [4-tert-Butylphenyl salicylate]	Inactive
O=[N+]([O-])c1ccc2c3c(cccc13)CC2 [5-Nitroacenaphthene]	Inactive
C[C@]12CC[C@@H]3c4ccc(O)cc4CC[C@H]3[C@@H]1CC[C@@H]2O [17beta-Estradiol]	Inactive
CCNc1nc(NC(C)C)nc(OC)n1 [Atraton]	Inactive
Oc1ccc(Cc2ccc(O)cc2)cc1 [Bis(4-hydroxyphenyl)methane]	Inconclusive inhibitor
Nc1c(Cl)cc([N+](=O)[O-])cc1Cl [Dicloran]	Inactive
C[C@]12CC[C@@H]3c4ccc(O)cc4CC[C@H]3[C@@H]1C[C@@H](O)[C@@H]2O [Estriol]	Inactive
COc1ccccc1OC(=O)Oc1ccccc1OC [Guaiacol carbonate]	Inactive
COC(=O)Nc1nc2ccc(C(=O)c3ccccc3)cc2[nH]1 [Mebendazole]	Inactive
COC(=O)c1ccc(O)cc1 [Methylparaben]	Inactive
NC(=O)Cc1cccc(C(=O)c2ccccc2)c1N [Nepafenac]	Inactive
COC(=O)Nc1nc2ccc(C(=O)c3cccs3)cc2[nH]1 [Nocodazole]	Inconclusive inhibitor
CCNc1nc(NC(C)CC)nc(OC)n1 (centres unmarked) [Secbumeton]	Inactive
CCNc1nc(Cl)nc(NCC)n1 [Simazine]	Inconclusive inhibitor

Target: Photinus pyralis (firefly) luciferase (Photinus pyralis, UniProt P08659)
Experiment: biochemical
Assay type: biochemical
Settings: not given

Photinus pyralis (firefly) luciferase, sequence (P08659 whole entry): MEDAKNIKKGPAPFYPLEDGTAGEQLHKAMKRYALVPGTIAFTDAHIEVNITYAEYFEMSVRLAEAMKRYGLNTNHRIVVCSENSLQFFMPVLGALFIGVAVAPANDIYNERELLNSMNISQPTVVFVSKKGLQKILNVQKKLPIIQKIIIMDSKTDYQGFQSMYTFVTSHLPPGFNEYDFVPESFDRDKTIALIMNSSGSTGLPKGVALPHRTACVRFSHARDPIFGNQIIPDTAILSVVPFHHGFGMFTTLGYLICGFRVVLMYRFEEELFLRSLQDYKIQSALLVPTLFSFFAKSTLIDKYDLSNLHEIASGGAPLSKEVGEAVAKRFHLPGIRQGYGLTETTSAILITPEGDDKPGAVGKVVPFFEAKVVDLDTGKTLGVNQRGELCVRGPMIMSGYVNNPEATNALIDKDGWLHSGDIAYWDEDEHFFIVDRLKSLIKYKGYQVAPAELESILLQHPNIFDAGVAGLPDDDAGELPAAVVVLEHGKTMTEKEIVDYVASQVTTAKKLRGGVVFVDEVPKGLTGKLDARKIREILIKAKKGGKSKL

Compound	Luciferase IC50	Luciferase IC50 (half-maximal inhibitory concentration)	IC50 [µM]
CCc1cc(Cc2cc(CC)c(N)c(CC)c2)cc(CC)c1N [4,4'-Methylenebis(2,6-diethylaniline)]	Inactive	–	–
CC(=O)C1(O)CCC2C3CCC4=CC(=O)CCC4(C)C3CCC21C (stereo not drawn) [17alpha-Hydroxyprogesterone]	–	Inactive	–
C[C@@H]1CC[C@H]2[C@@H](C)C(=O)O[C@@H]3O[C@@]4(C)CC[C@@H]1[C@]32OO4 [Artemisinin]	–	Inactive	–
CCOC(=O)OC(C)OC(=O)[C@@H]1N2C(=O)[C@@H](NC(=O)[C@H](N)c3ccccc3)[C@H]2SC1(C)C (some centres unmarked) [Bacampicillin hydrochloride]	–	Inactive	–
Cc1c(-c2ccc(O)cc2)n(Cc2ccc(OCCN3CCCCCC3)cc2)c2ccc(O)cc12 [Bazedoxifene]	–	Inactive	–
[Cl-].c1ccc(C[P+](c2ccccc2)(c2ccccc2)c2ccccc2)cc1 [Benzyltriphenylphosphonium chloride]	–	Inactive	–
COc1ccc(CCN(C)CCCC(C#N)(c2cc(OC)c(OC)c(OC)c2)C(C)C)cc1OC (centres unmarked) [Gallopamil hydrochloride]	–	Inactive	–
CC(CNC1CCCCC1)OC(=O)c1ccccc1 (centres unmarked) [Hexylcaine hydrochloride]	–	Inactive	–
OCCOCCN1CCN(C(c2ccccc2)c2ccc(Cl)cc2)CC1 (centres unmarked) [Hydroxyzine hydrochloride]	Inactive	–	–
CC(C)(C)NC(=O)[C@@H]1CN(Cc2cccnc2)CCN1C[C@@H](O)C[C@@H](Cc1ccccc1)C(=O)N[C@H]1c2ccccc2C[C@H]1O [Indinavir sulfate]	–	Inactive	–
Clc1ccc(C(Cn2ccnc2)OCc2c(Cl)cccc2Cl)c(Cl)c1 (centres unmarked) [Isoconazole nitrate]	–	Inactive	–
CNCCCC12CCC(c3ccccc31)c1ccccc12 [Maprotiline hydrochloride]	Inactive	–	–
CCN(CCCCOC(=O)c1ccc(OC)c(OC)c1)C(C)Cc1ccc(OC)cc1 (centres unmarked) [Mebeverine hydrochloride]	–	Inactive	–
CCCNC(C)(C)COC(=O)c1ccccc1 [Meprylcaine hydrochloride]	–	Inactive	–
CN1C[C@H](CNC(=O)OCc2ccccc2)C[C@@H]2c3cccc4c3c(cn4C)C[C@H]21 [Metergoline]	Inactive	–	–
CC[C@@H](CO)NC(=O)[C@@H]1C=C2c3cccc4[nH]cc(c34)C[C@H]2N(C)C1 [Methergine]	Inactive	–	–
CN(C)c1ccc2nc3ccc(=[N+](C)C)cc-3sc2c1 [Methylene blue]	–	–	29.1
CC#C[C@]1(O)CC[C@H]2[C@@H]3CCC4=CC(=O)CCC4=C3[C@@H](c3ccc(N(C)C)cc3)C[C@@]21C [Mifepristone]	Inactive	–	–

Target: T2, human CYP2C9 (Homo sapiens, UniProt P11712)
Experiment: not given
Settings: not given

T2 sequence (P11712 whole entry): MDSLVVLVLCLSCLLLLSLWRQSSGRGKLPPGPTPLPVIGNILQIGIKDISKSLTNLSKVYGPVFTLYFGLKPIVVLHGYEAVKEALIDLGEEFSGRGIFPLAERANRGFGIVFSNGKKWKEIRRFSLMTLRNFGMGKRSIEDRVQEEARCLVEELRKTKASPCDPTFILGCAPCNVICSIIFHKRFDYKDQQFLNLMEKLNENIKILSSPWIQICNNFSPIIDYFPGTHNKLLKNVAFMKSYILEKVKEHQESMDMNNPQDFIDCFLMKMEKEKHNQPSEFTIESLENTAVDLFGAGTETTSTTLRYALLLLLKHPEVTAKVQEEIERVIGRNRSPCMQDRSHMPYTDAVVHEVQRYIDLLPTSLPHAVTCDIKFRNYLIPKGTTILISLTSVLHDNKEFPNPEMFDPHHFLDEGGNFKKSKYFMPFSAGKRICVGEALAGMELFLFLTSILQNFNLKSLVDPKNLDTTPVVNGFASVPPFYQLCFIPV

Compound	CYP2C9 AC50 (half-maximal activity concentration)
CC(C)c1ccccc1O [2-Isopropylphenol]	Inactive

Target: T2, human CYP2C9
Experiment: biochemical
Settings: not given

Compound	AC50 [µM]
CCN(CC)c1ccc(C=O)cc1 [4-(Diethylamino)benzaldehyde]	20.1
CC(C)(C)c1ccc(OC(=O)c2ccccc2O)cc1 [4-tert-Butylphenyl salicylate]	24.7
COc1ccccc1OC(=O)Oc1ccccc1OC [Guaiacol carbonate]	14.9
CCNc1nc(NC(C)CC)nc(OC)n1 (centres unmarked) [Secbumeton]	43.5

Same assay, conditions: CYP2C9 AC50 (half-maximal activity concentration)

Compound	AC50 [µM]
Nc1c(Br)cc([N+](=O)[O-])cc1Br [2,6-Dibromo-4-nitroaniline]	18.1
CCC(C)c1ccccc1O (centres unmarked) [2-(Butan-2-yl)phenol]	53.2
O=[N+]([O-])c1ccc(O)cc1C(F)(F)F [3-Trifluoromethyl-4-nitrophenol]	34.1
CCC(C)c1ccc(O)cc1 (centres unmarked) [4-(Butan-2-yl)phenol]	33.4
Cc1cc(O)cc(C)c1Cl [4-Chloro-3,5-dimethylphenol]	17.4
Cc1cc(=O)oc2cc(O)ccc12 [4-Methylumbelliferone]	14.6
O=[N+]([O-])c1ccc2c3c(cccc13)CC2 [5-Nitroacenaphthene]	8.98
C[C@]12CC[C@@H]3c4ccc(O)cc4CC[C@H]3[C@@H]1CC[C@@H]2O [17beta-Estradiol]	5.72
CCNc1nc(NC(C)C)nc(OC)n1 [Atraton]	38.5
Oc1ccc(Cc2ccc(O)cc2)cc1 [Bis(4-hydroxyphenyl)methane]	11.8
Nc1c(Cl)cc([N+](=O)[O-])cc1Cl [Dicloran]	17.9
C[C@]12CC[C@@H]3c4ccc(O)cc4CC[C@H]3[C@@H]1C[C@@H](O)[C@@H]2O [Estriol]	21
COC(=O)Nc1nc2ccc(C(=O)c3ccccc3)cc2[nH]1 [Mebendazole]	3.89
COC(=O)c1ccc(O)cc1 [Methylparaben]	17.4
NC(=O)Cc1cccc(C(=O)c2ccccc2)c1N [Nepafenac]	25.3
COC(=O)Nc1nc2ccc(C(=O)c3cccs3)cc2[nH]1 [Nocodazole]	4.43
CCNc1nc(Cl)nc(NCC)n1 [Simazine]	5.09

Target: T3, human CYP1A2 (Homo sapiens, UniProt P05177)
T3 sequence (P05177 1-516): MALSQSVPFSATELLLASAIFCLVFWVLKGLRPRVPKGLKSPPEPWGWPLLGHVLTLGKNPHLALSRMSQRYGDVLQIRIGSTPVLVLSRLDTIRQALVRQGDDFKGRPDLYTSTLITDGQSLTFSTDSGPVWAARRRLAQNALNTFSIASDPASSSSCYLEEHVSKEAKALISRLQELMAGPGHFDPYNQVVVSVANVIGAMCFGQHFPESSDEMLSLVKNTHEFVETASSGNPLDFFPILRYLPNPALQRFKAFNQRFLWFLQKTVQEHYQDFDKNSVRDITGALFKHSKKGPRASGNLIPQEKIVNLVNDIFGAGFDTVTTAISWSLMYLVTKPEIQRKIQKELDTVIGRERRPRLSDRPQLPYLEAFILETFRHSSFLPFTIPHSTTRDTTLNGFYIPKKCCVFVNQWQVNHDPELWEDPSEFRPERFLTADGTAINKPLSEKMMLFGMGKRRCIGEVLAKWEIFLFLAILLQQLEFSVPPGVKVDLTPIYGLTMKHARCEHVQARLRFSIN
Experiment: biochemical
Settings: not given

Compound	AC50 [µM]
CC(C)c1ccccc1O [2-Isopropylphenol]	47.7
CCN(CC)c1ccc(C=O)cc1 [4-(Diethylamino)benzaldehyde]	5.66
CC(C)(C)c1ccc(OC(=O)c2ccccc2O)cc1 [4-tert-Butylphenyl salicylate]	40.1
COc1ccccc1OC(=O)Oc1ccccc1OC [Guaiacol carbonate]	6.41
CCNc1nc(NC(C)CC)nc(OC)n1 (centres unmarked) [Secbumeton]	26.2

Same assay, conditions: CYP1A2 AC50 (half-maximal activity concentration)

Compound	AC50 [µM]
Nc1c(Br)cc([N+](=O)[O-])cc1Br [2,6-Dibromo-4-nitroaniline]	1.27
CCC(C)c1ccccc1O (centres unmarked) [2-(Butan-2-yl)phenol]	38.5
O=[N+]([O-])c1ccc(O)cc1C(F)(F)F [3-Trifluoromethyl-4-nitrophenol]	56.6
CCC(C)c1ccc(O)cc1 (centres unmarked) [4-(Butan-2-yl)phenol]	34.6
Cc1cc(O)cc(C)c1Cl [4-Chloro-3,5-dimethylphenol]	14.2
Cc1cc(=O)oc2cc(O)ccc12 [4-Methylumbelliferone]	28.6
O=[N+]([O-])c1ccc2c3c(cccc13)CC2 [5-Nitroacenaphthene]	2.25
C[C@]12CC[C@@H]3c4ccc(O)cc4CC[C@H]3[C@@H]1CC[C@@H]2O [17beta-Estradiol]	29.1
CCNc1nc(NC(C)C)nc(OC)n1 [Atraton]	28.4
Oc1ccc(Cc2ccc(O)cc2)cc1 [Bis(4-hydroxyphenyl)methane]	38.8
Nc1c(Cl)cc([N+](=O)[O-])cc1Cl [Dicloran]	2.84
C[C@]12CC[C@@H]3c4ccc(O)cc4CC[C@H]3[C@@H]1C[C@@H](O)[C@@H]2O [Estriol]	34.4
COC(=O)Nc1nc2ccc(C(=O)c3ccccc3)cc2[nH]1 [Mebendazole]	14
COC(=O)c1ccc(O)cc1 [Methylparaben]	20.8
NC(=O)Cc1cccc(C(=O)c2ccccc2)c1N [Nepafenac]	14.4
COC(=O)Nc1nc2ccc(C(=O)c3cccs3)cc2[nH]1 [Nocodazole]	15.2
CCNc1nc(Cl)nc(NCC)n1 [Simazine]	7.9

Target: CYP3A4 (Homo sapiens, UniProt P08684)
Experiment: not given
Settings: not given

CYP3A4, sequence (P08684 whole entry): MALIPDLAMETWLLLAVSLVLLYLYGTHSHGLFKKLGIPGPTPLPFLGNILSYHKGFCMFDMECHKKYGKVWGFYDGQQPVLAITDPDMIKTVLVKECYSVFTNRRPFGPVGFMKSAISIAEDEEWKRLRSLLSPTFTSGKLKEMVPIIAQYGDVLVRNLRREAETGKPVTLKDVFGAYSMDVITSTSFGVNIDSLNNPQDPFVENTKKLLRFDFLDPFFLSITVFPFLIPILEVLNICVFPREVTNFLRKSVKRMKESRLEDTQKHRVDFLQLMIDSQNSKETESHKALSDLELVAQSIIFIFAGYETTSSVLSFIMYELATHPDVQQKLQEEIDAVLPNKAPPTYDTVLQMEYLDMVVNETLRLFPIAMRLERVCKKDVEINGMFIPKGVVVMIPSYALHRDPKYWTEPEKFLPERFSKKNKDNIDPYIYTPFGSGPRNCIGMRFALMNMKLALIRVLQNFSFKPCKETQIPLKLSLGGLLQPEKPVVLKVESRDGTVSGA

Compound	CYP3A4 AC50 (half-maximal activity concentration)
Nc1c(Br)cc([N+](=O)[O-])cc1Br [2,6-Dibromo-4-nitroaniline]	Inactive
CCC(C)c1ccccc1O (centres unmarked) [2-(Butan-2-yl)phenol]	Inconclusive inhibitor
CC(C)c1ccccc1O [2-Isopropylphenol]	Inactive
O=[N+]([O-])c1ccc(O)cc1C(F)(F)F [3-Trifluoromethyl-4-nitrophenol]	Inconclusive inhibitor
CCC(C)c1ccc(O)cc1 (centres unmarked) [4-(Butan-2-yl)phenol]	Inactive
CCN(CC)c1ccc(C=O)cc1 [4-(Diethylamino)benzaldehyde]	Inactive
Cc1cc(O)cc(C)c1Cl [4-Chloro-3,5-dimethylphenol]	Inactive
Cc1cc(=O)oc2cc(O)ccc12 [4-Methylumbelliferone]	Inactive
CC(C)(C)c1ccc(OC(=O)c2ccccc2O)cc1 [4-tert-Butylphenyl salicylate]	Inactive
O=[N+]([O-])c1ccc2c3c(cccc13)CC2 [5-Nitroacenaphthene]	Inconclusive inhibitor
C[C@]12CC[C@@H]3c4ccc(O)cc4CC[C@H]3[C@@H]1CC[C@@H]2O [17beta-Estradiol]	Inconclusive activator
CCNc1nc(NC(C)C)nc(OC)n1 [Atraton]	Inconclusive inhibitor
Oc1ccc(Cc2ccc(O)cc2)cc1 [Bis(4-hydroxyphenyl)methane]	Inconclusive inhibitor
Nc1c(Cl)cc([N+](=O)[O-])cc1Cl [Dicloran]	Inactive
C[C@]12CC[C@@H]3c4ccc(O)cc4CC[C@H]3[C@@H]1C[C@@H](O)[C@@H]2O [Estriol]	Inactive
COc1ccccc1OC(=O)Oc1ccccc1OC [Guaiacol carbonate]	Inactive
COC(=O)Nc1nc2ccc(C(=O)c3ccccc3)cc2[nH]1 [Mebendazole]	Inactive
COC(=O)c1ccc(O)cc1 [Methylparaben]	Inactive
NC(=O)Cc1cccc(C(=O)c2ccccc2)c1N [Nepafenac]	Inactive
COC(=O)Nc1nc2ccc(C(=O)c3cccs3)cc2[nH]1 [Nocodazole]	Inactive
CCNc1nc(NC(C)CC)nc(OC)n1 (centres unmarked) [Secbumeton]	Inactive
CCNc1nc(Cl)nc(NCC)n1 [Simazine]	Inactive

Target: T1, human CYP2C19
Experiment: biochemical
Settings: not given

Compound	AC50 [µM]
CC(C)c1ccccc1O [2-Isopropylphenol]	9.09
CCN(CC)c1ccc(C=O)cc1 [4-(Diethylamino)benzaldehyde]	14.3
CC(C)(C)c1ccc(OC(=O)c2ccccc2O)cc1 [4-tert-Butylphenyl salicylate]	14.2
COc1ccccc1OC(=O)Oc1ccccc1OC [Guaiacol carbonate]	9.77
CCNc1nc(NC(C)CC)nc(OC)n1 (centres unmarked) [Secbumeton]	26.4

Same assay, conditions: CYP2C19 AC50 (half-maximal activity concentration)

Compound	AC50 [µM]
Nc1c(Br)cc([N+](=O)[O-])cc1Br [2,6-Dibromo-4-nitroaniline]	43.1
CCC(C)c1ccccc1O (centres unmarked) [2-(Butan-2-yl)phenol]	9.46
O=[N+]([O-])c1ccc(O)cc1C(F)(F)F [3-Trifluoromethyl-4-nitrophenol]	27.9
CCC(C)c1ccc(O)cc1 (centres unmarked) [4-(Butan-2-yl)phenol]	3.47
O=[N+]([O-])c1ccc2c3c(cccc13)CC2 [5-Nitroacenaphthene]	33.6
C[C@]12CC[C@@H]3c4ccc(O)cc4CC[C@H]3[C@@H]1CC[C@@H]2O [17beta-Estradiol]	16.8
CCNc1nc(NC(C)C)nc(OC)n1 [Atraton]	32.1
Nc1c(Cl)cc([N+](=O)[O-])cc1Cl [Dicloran]	55.8
C[C@]12CC[C@@H]3c4ccc(O)cc4CC[C@H]3[C@@H]1C[C@@H](O)[C@@H]2O [Estriol]	31.2
NC(=O)Cc1cccc(C(=O)c2ccccc2)c1N [Nepafenac]	29.9
